The values that follow come from patent publication US12429423B2, “L-2-hydroxyglutarate biosensor based on specific transcriptional regulator and application thereof” (SHANDONG UNIVERSITY, priority 2020, dated 2025).

The first experiment relates to LhgR binding to the lhgO promoter (F1). Put plainly: Electrophoretic mobility shift assays (EMSAs) to analyze the effectors of LhgR. More on the design: species or system Pseudomonas putida W619. The note with it: 50 mM compound, 60 nM purified LhgR, 10 nM F1 fragment, 30° C. The text has this: The above transcriptional regulator that specifically responds to L-2-hydroxyglutarate (L-2-HG) was obtained in the following way: • (1) analysis of the distribution of lhgO, the gene encoding a key enzyme for L-2-HG catabolism, in the genomes of different strains. A gene encoding a GntR family transcriptional regulator, lhgR, was found directly upstream of lhgO in the genome of Pseudomonas putida W619. lhgR gene was synthesized and cloned into pETDuet-1 vector, and the recombinant plasmid pETDuet-lhgR was introduced into an expression strain Escherichia coli BL21 (DE3), and then LhgR protein was obtained by induction of expression, isolation, and purification; • (2) electrophoretic mobility shift assays were performed to verify and determine the function of the above transcriptional regulator LhgR in Pseudomonas putida W619. Purified LhgR was incubated with different compounds (L-lysine, 5-aminovalerate, glutarate, D-2-HG, 2-ketoglutarate, and succinate), respectively, then the promoter fragment of lhgO was added. The effect on the binding ability of LhgR to the lhgO promoter fragment in the presence of different compounds was analyzed by electrophoretic separation, staining, and imaging.
Using the recombinant plasmid pETDuet-F2-lhgR-F1-lhgO as a template, the promoter region of lhgO (F1) was amplified by PCR using the synthetic primers. The F1 fragment and purified LhgR protein were diluted to 100 nM and 2000 nM using EMSA binding buffer, respectively. 18 μL of EMSA binding buffer containing 60 nM purified LhgR protein and 50 mM of different compounds was incubated for 15 min at 30° C., then 2 μL of F1 fragment at a final concentration of 10 nM was added and incubated for another 30 min at 30° C. 10 μL of the reaction mixture was electrophoresed on a 6% native polyacrylamide gels at 4° C. and 170 volts for approximately 45 minutes, followed by staining with SYBR green I and photographing.
The EMSA binding buffer formulation described in step (2) above was: 10 mM Tris-HCl, 50 mM KCl, 0.5 mM EDTA, 10% glycerol, and 1 mM dithiothreitol, adjusted to pH 7.4. The electrophoresis buffer formulation was: 89 mM Tris, 89 mM boric acid, 2 mM EDTA, adjusted to pH 8.3.
In the case of `O=C(O)CCC(=O)C(=O)O` [2-ketoglutarate], the “effect on the binding of LhgR to the lhgO promoter fragment (EMSA)” value (“effect on the binding of LhgR” below) is “could not interfere with the binding of LhgR to DNA fragments”.

On to `NCCCCC(=O)O` [5-aminovalerate], for which the “effect on the binding of LhgR” value is given as “could not interfere with the binding of LhgR to DNA fragments”.

With `O=C(O)CC[C@@H](O)C(=O)O` [D-2-HG], the “effect on the binding of LhgR” value is “could not interfere with the binding of LhgR to DNA fragments”.

Turning to `O=C(O)CC[C@H](O)C(=O)O` [L-2-HG, L-2-Hydroxyglutarate], the “effect on the binding of LhgR” value is recorded as “inhibited the binding of LhgR to the lhgO promoter fragment”.

`NCCCC[C@H](N)C(=O)O` [L-lysine]: the “effect on the binding of LhgR” value is “could not interfere with the binding of LhgR to DNA fragments”.

As for `O=C(O)CCC(=O)O` [succinate], the “effect on the binding of LhgR” value was “could not interfere with the binding of LhgR to DNA fragments”.

The subject of another experiment is E. coli BL21(DE3). Put plainly: Real-time detection of intracellular L-2-HG concentration in bacteria. In kind it is cell-based, Escherichia coli. Conditions: carbon starvation-treated E. coli BL21(DE3) expressing the biosensor, L-2-HG added, 37° C., 5 min interval. As to the method: The above application was performed by introducing the L-2-HG biosensor-encoding plasmid pETDuet-LHGFR0N3C into an expression strain E. coli BL21 (DE3), shaking the culture and then adding IPTG overnight to induce LHGFR0N3C expression, carbon starvation treatment in inorganic salt medium without carbon source for 8 h to remove intracellular L-2-HG, mixing 90 μL of carbon starvation-treated bacterial solution with 10 μL of gradient concentration of L-2-HG solution, the fluorescence emission intensity of mTFP and Venus and its ratio were measured continuously at 5-minute intervals by a fluorescence microplate reader, and the fluorescence emission ratio increased in response to the addition of L-2-HG, and there was a positive correlation between the change level of fluorescence emission ratio and the concentration of L-2-HG, which can be used as an indicator to achieve real-time detection of dynamic changes in intracellular L-2-HG concentration of bacteria.
The E. coli BL21(DE3)-pETDuet-LHGFR0N3C strain constructed in Example 3 was inoculated in 50 mL of LB medium containing ampicillin resistance and incubated at 37° C. with 180 rpm to an OD600 nm of approximately 0.6. Then, 1 mM IPTG was added, and LHGFR0N3C expression was induced at 16° C. with 160 rpm overnight. […] The fluorescence intensity was detected continuously by using an EnSight microplate reader (PerkinElmer, USA). […]
As to “LHGFR0N3C: L-2-HG biosensor: mTFP-LhgR-Venus fusion with C-terminal truncation of three amino acids of LhgR; SEQ ID NO. 3”, the “detection of intracellular L-2-HG dynamics (fluorescence emission ratio)” value is listed as “able to detect dynamic changes in intracellular L-2-HG concentration of bacteria in real time”.

The test system of a further experiment is HEK293FT cells. Put plainly: Detection of intracellular L-2-HG concentration in human cells. Conditions: HEK293FT cells expressing the biosensor, permeabilized with 10 μM digitonin, L-2-HG added. In kind it is cell-based. As to the method: The above application was performed by optimizing and synthesizing the nucleotide sequences of LHGFR0N3C and LHGFR0N7C with mammalian codons, adding the kozark sequence, 5′-GCCACC-3′, before the start codon, and ligating it to the pcDNA3.1^(+) plasmid, then the obtained recombinant plasmids pcDNA3.1-LHGFR0N3C and pcDNA3.1-LHGFR0N7C were transfected into HEK293FT cells, respectively. Cells were trypsinized 48 h following transfection, and resuspended in 1× Hank's balanced salt solution supplemented with 20 mM HEPES. Digitonin at a concentration of 10 μM was used to induce cell permeabilization and deplete intracellular L-2-HG for in vivo response curves construction.
The nucleotide sequences of LHGFR0N3C and LHGFR0N7C were optimized for mammalian codons and synthesized by General Biosystem Co., Ltd (Anhui). […] In a black flat-bottomed 96-well plate, 90 μL of the treated cell suspension was mixed with 10 μL of gradient concentration of L-2-HG and the fluorescence intensity was read in a SpectraMax i3 fluorescence plate reader (Molecular Devices, USA). […] The fluorescence intensity of HEK293FT cells not expressing the L-2-HG biosensor was subtracted at each emission wavelength and the dose-response curve in human cells was plotted as the ratio of the corrected fluorescence intensity at 528 nm to the fluorescence intensity at 485 nm.
For “LHGFR0N3C: L-2-HG biosensor: mTFP-LhgR-Venus fusion with C-terminal truncation of three amino acids of LhgR; SEQ ID NO. 3”, the “detection of intracellular L-2-HG (fluorescence emission ratio)” value is “able to detect intracellular L-2-HG concentration in human cells”.

“LHGFR0N7C: L-2-HG biosensor: mTFP-LhgR-Venus fusion with C-terminal truncation of seven amino acids of LhgR; SEQ ID NO. 4”: the “detection of intracellular L-2-HG (fluorescence emission ratio)” value was “able to detect intracellular L-2-HG concentration in human cells”.
